Test system: c-Myc
Experiment: c-Myc immunofluorescence assay
Assay type: cell-based, human
Settings: A549 cells, 24 hours, anti-c-Myc immunofluorescence
Summary of the method: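 A549 NSCLC cells grown 48 h, then treated 24 h with increasing compound concentrations; fixed in 4% paraformaldehyde, stained with anti-c-Myc antibody plus fluorescent secondary and DAPI. Per-cell c-Myc fluorescence quantified by high-content imaging at 20×; dose-response fitted by logistic regression to give EC50.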

| Structure (SMILES) | Myc Efficacy (−LogEC50) |
| --- | --- |
| COc1ccc(-c2noc(N3CCC(C(=O)NCC4CCN(CC5CCC5)C4)CC3)n2)cc1 (stereo not drawn) [Compound 336, N-((1-(cyclobutylmethyl)pyrrolidin-3-yl)methyl)-1-(3-(4-methoxyphenyl)-1,2,4-oxadiazol-5-yl)piperidine-4-carboxamide] | ++ (++ ≥5 and <6) |
| COc1ccc(-c2noc(N3CCC(C(=O)NCC4CCN(CC5CC5(C)C)C4)CC3)n2)cc1 (stereo not drawn) [Compound 337, N-((1-((2,2-dimethylcyclopropyl)methyl)pyrrolidin-3-yl)methyl)-1-(3-(4-methoxyphenyl)-1,2,4-oxadiazol-5-yl)piperidine-4-carboxamide] | ++ (++ ≥5 and <6) |
| COc1ccc(-c2noc(N3CCC(C(=O)NCC4CCN(CC5CCCCC5)C4)CC3)n2)cc1 (stereo not drawn) [Compound 338, N-((1-(cyclohexylmethyl)pyrrolidin-3-yl)methyl)-1-(3-(4-methoxyphenyl)-1,2,4-oxadiazol-5-yl)piperidine-4-carboxamide] | ++ (++ ≥5 and <6) |
| COc1ccc(-c2noc(N3CCC(C(=O)NCC4CCN(Cc5ccc(O)cc5)C4)CC3)n2)cc1 (stereo not drawn) [Compound 339, N-((1-(4-hydroxybenzyl)pyrrolidin-3-yl)methyl)-1-(3-(4-methoxyphenyl)-1,2,4-oxadiazol-5-yl)piperidine-4-carboxamide] | ++ (++ ≥5 and <6) |
| COc1ccc(-c2noc(N3CCC(C(=O)NCC4CCN(Cc5ccccn5)C4)CC3)n2)cc1 (stereo not drawn) [Compound 340, 1-(3-(4-methoxyphenyl)-1,2,4-oxadiazol-5-yl)-N-((1-(pyridin-2-ylmethyl)pyrrolidin-3-yl)methyl)piperidine-4-carboxamide] | ++ (++ ≥5 and <6) |
| COc1ccc(-c2noc(N3CCC(C(=O)NCC4CCN(Cc5cncs5)C4)CC3)n2)cc1 (stereo not drawn) [Compound 341, 1-(3-(4-methoxyphenyl)-1,2,4-oxadiazol-5-yl)-N-((1-(thiazol-5-ylmethyl)pyrrolidin-3-yl)methyl)piperidine-4-carboxamide] | + (+ >3 and <5) |
| COc1ccc(-c2noc(N3CCC(C(=O)NCC4CCN(Cc5ccccc5)C4)CC3)n2)cc1 (stereo not drawn) [Compound 342, N-((1-benzylpyrrolidin-3-yl)methyl)-1-(3-(4-methoxyphenyl)-1,2,4-oxadiazol-5-yl)piperidine-4-carboxamide] | ++ (++ ≥5 and <6) |
| COc1ccc(-c2noc(N3CCC(C(=O)NCC4CCN(CC(F)(F)F)C4)CC3)n2)cc1 (stereo not drawn) [Compound 343, 1-(3-(4-methoxyphenyl)-1,2,4-oxadiazol-5-yl)-N-((1-(2,2,2-trifluoroethyl)pyrrolidin-3-yl)methyl)piperidine-4-carboxamide] | + (+ >3 and <5) |
| C#CCCC1(CCOc2cc(-c3noc(N4CCC(C(=O)NCC5CCN(Cc6ccc(C)cc6)C5)CC4)n3)ccc2OC)N=N1 (stereo not drawn) [Compound 344, 1-(3-(3-(2-(3-(but-3-yn-1-yl)-3H-diazirin-3-yl)ethoxy)-4-methoxyphenyl)-1,2,4-oxadiazol-5-yl)-N-((1-(4-methylbenzyl)pyrrolidin-3-yl)methyl)piperidine-4-carboxamide] | ++ (++ ≥5 and <6) |
| COc1ccc(-c2noc(N3CCN(C(=O)NCC4CCN(c5ccccc5)C4)CC3)n2)cc1 (stereo not drawn) [Compound 345, 4-(3-(4-methoxyphenyl)-1,2,4-oxadiazol-5-yl)-N-((1-phenylpyrrolidin-3-yl)methyl)piperazine-1-carboxamide] | + (+ >3 and <5) |
| COc1ccc(-c2noc(N3CCC(C(=O)NC4CCN(c5ccccc5)C4)CC3)n2)cc1 (stereo not drawn) [Compound 346, 1-(3-(4-methoxyphenyl)-1,2,4-oxadiazol-5-yl)-N-(1-phenylpyrrolidin-3-yl)piperidine-4-carboxamide] | ++ (++ ≥5 and <6) |
| COc1ccc(-c2noc(N3CCC(C(=O)NCC4CCN(CC5CCOC5)C4)CC3)n2)cc1 (stereo not drawn) [Compound 347, 1-(3-(4-methoxyphenyl)-1,2,4-oxadiazol-5-yl)-N-((1-((tetrahydrofuran-3-yl)methyl)pyrrolidin-3-yl)methyl)piperidine-4-carboxamide] | + (+ >3 and <5) |
| COc1ccc(-c2noc(N3CCC(C(=O)NCC4CCN(Cc5ccncc5C)C4)CC3)n2)cc1 (stereo not drawn) [Compound 348, 1-(3-(4-methoxyphenyl)-1,2,4-oxadiazol-5-yl)-N-((1-((3-methylpyridin-4-yl)methyl)pyrrolidin-3-yl)methyl)piperidine-4-carboxamide] | ++ (++ ≥5 and <6) |
| COc1ccc(-c2noc(N3CCC(C(=O)NCC4CCN(Cc5cccc(C)c5)C4)CC3)n2)cc1 (stereo not drawn) [Compound 349, 1-(3-(4-methoxyphenyl)-1,2,4-oxadiazol-5-yl)-N-((1-(3-methylbenzyl)pyrrolidin-3-yl)methyl)piperidine-4-carboxamide] | ++ (++ ≥5 and <6) |
| COc1ccc(-c2noc(N3CCC(C(=O)NCC4CCN(Cc5ncccc5C)C4)CC3)n2)cc1 (stereo not drawn) [Compound 350, 1-(3-(4-methoxyphenyl)-1,2,4-oxadiazol-5-yl)-N-((1-((3-methylpyridin-2-yl)methyl)pyrrolidin-3-yl)methyl)piperidine-4-carboxamide] | ++ (++ ≥5 and <6) |
| COc1ccc(-c2noc(N3CCC(C(=O)NCC4CCN(Cc5ccc(C)nc5)C4)CC3)n2)cc1 (stereo not drawn) [Compound 351, 1-(3-(4-methoxyphenyl)-1,2,4-oxadiazol-5-yl)-N-((1-((6-methylpyridin-3-yl)methyl)pyrrolidin-3-yl)methyl)piperidine-4-carboxamide] | ++ (++ ≥5 and <6) |
| COc1ccc(-c2noc(N3CCC(C(=O)NCC4CCN(Cc5ccns5)C4)CC3)n2)cc1 (stereo not drawn) [Compound 352, N-((1-(isothiazol-5-ylmethyl)pyrrolidin-3-yl)methyl)-1-(3-(4-methoxyphenyl)-1,2,4-oxadiazol-5-yl)piperidine-4-carboxamide] | ++ (++ ≥5 and <6) |
| COc1ccc(-c2noc(N3CCC(C(=O)NCC4CCN(CC5CCN(C)CC5)C4)CC3)n2)cc1 (stereo not drawn) [Compound 353, 1-(3-(4-methoxyphenyl)-1,2,4-oxadiazol-5-yl)-N-((1-((1-methylpiperidin-4-yl)methyl)pyrrolidin-3-yl)methyl)piperidine-4-carboxamide] | ++ (++ ≥5 and <6) |
| COc1ccc(-c2noc(N3CCC(C(=O)NCC4CCN(CC5CCSCC5)C4)CC3)n2)cc1 (stereo not drawn) [Compound 354, 1-(3-(4-methoxyphenyl)-1,2,4-oxadiazol-5-yl)-N-((1-((tetrahydro-2H-thiopyran-4-yl)methyl)pyrrolidin-3-yl)methyl)piperidine-4-carboxamide] | ++ (++ ≥5 and <6) |
| COc1ccc(-c2noc(N3CCC(C(=O)NCC4CCN(CC5CCOCC5)C4)CC3)n2)cc1 (stereo not drawn) [Compound 355, 1-(3-(4-methoxyphenyl)-1,2,4-oxadiazol-5-yl)-N-((1-((tetrahydro-2H-pyran-4-yl)methyl)pyrrolidin-3-yl)methyl)piperidine-4-carboxamide] | + (+ >3 and <5) |
| COc1ccc(-c2noc(N3CCC(C(=O)NCC4CCN(Cc5cccnc5)C4)CC3)n2)cc1 (stereo not drawn) [Compound 356, 1-(3-(4-methoxyphenyl)-1,2,4-oxadiazol-5-yl)-N-((1-(pyridin-3-ylmethyl)pyrrolidin-3-yl)methyl)piperidine-4-carboxamide] | ++ (++ ≥5 and <6) |
